Source: patent US20240285769A1, “INJECTABLE, BIODEGRADABLE AND REMOVABLE POLYMER BASED DRUG SUSPENSION FOR ULTRA-LONG-ACTING DRUG DELIVERY” (The University of North Carolina at Chapel Hill, priority 2021, published 2024)

How the values were obtained:
[1] = Preparation and optimization of drug suspension formulations; type: physicochemical
Procedure: The polymer based drug suspensions were prepared by: (1) Placebo formulation: 50:50 Poly(DL-lactide-co-glycolide) (PLGA), MW 10 or 27 kDa, or Poly(lactic acid) (PLA) MW 10 kDa, was mixed with N-methyl-2-pyrrolidone (NMP) or a combination of NMP and DMSO (e.g. 1:1 v/v) at various weight ratios of PLGA/solvent (w/w) and allowed to dissolve by continuous mixing at room temperature (Placebo). […] (2) Drug loading: […] (3) Depot formation: A sample from the resulting drug-loaded suspension formulation (30 μL, 30±3 mg) was injected into 200 mL of 0.01 M PBS pH 7.4 using a pipette and incubated at 37° C. for 24 h to produce a spherical implant, as an example. […] Of importance, but without being limited to any particular theory or mechanism of action, is the ratio of the polymer:solvent:drug that achieves high drug loading in a stable polymeric suspension formulation and which is correlated to the drug's saturation solubility in the solvent system.

[2] = In vitro drug release studies of ISFIs; type: physicochemical; details: ISFI suspension 1:4 PLGA/(NMP:DMSO), 290 mg/g
Procedure: Sample aliquots (1 mL) were collected at various time points and replaced with fresh release medium. The release medium was completely removed and replaced with fresh medium every week to maintain sink conditions. Drug concentration in the release samples was quantified by HPLC using the method described above. Cumulative drug release was calculated from the HPLC analysis and normalized to the total mass of drug in the implant. All experiments were performed in quadruplicate. ISFIs were prepared with 1:2 w/w PLGA:(NMP/DMPS 1:1) (PLGA MW 27 kDa, 50:50 LA/GA). […] To investigate the effect of polymer MW on CAB release kinetics, two CAB suspension ISFIs were prepared using PLGA (50:50 LA/GA) with MW of 10 kDa and 27 kDa. CAB was loaded at a constant concentration of 250 mg/g as a stable suspension formulation in a 1:2 PLGA/solvent (solvent=NMP/DMSO 1:1 w/w). […] 55 μg/d compared to 13.53 μg/d for PLGA MW 27 kDa. […] The effect of formulation composition and addition of rate controlling polymers like star-PLGA (5-arm 50:50 LA/GA PLGA MW 54 kDa) on drug release kinetics were also investigated. Three formulations were prepared using NMP/DMSO (1:1) as a co-solvent system, PLGA (50:50 LA/GA MW 27 kDa) and PLGA/star-PLGA (9:1 w/w) polymer combination. CAB was loaded at a constant concentration of 300 mg/g in all three formulations. […]

## Cn1c(Cn2ccc(C(F)(F)F)c(Oc3cc(Cl)cc(C#N)c3)c2=O)n[nH]c1=O [DOR, Doravirine]
[1]
  suspension formation when loaded above saturation concentration in PLGA/solvent placebo: formed stable syringeable formulations
[1]; PBS, pH 7.4, 37° C.
  depot formation when injected into aqueous release medium: formation of stable depots
[2]; PBS 37° C.
  burst release in 24 h: < 2%
[2]; last timepoint analyzed
  drug release at d3: 3%
